# Measurements taken from US4563468A, “Chemotherapeutic agents” (Burroughs Wellcome Co., priority 1979, dated 1986).
# Assays:
# rhinovirus [1] = experiment: plaque reduction (PR) test; type: cell-based; details: Enterovirus; 50% of the effective dose estimated from dose response curve; plaque numbers as percentages of a control; monolayer cell culture, compound in nutrient agarose overlay; read-out: PR(ED50)
# Experimental: Activity may be detected by the plaque inhibition (PI) test and measured by the plaque reduction (PR) test. Both assays involve the formation of a monolayer cell culture in a petri dish followed by infection with a virus suspension, and then overlaying the culture with nutrient agarose in the form of a gel. This gel ensures that there is no spread of virus throughout the culture and thus areas of localised cell destruction or plaques are formed. Detectable activity is measured with the plaque reduction assay. A range of concentrations of compound of known molarity are incorporated in the nutrient agarose overlay. Plaque suppression is proportional to compound concentration. Plaque numbers are expressed as percentages of a control, and a dose response curve may be drawn. From this curve 50% of the effective dose (ED50) may be estimated.
# rhinovirus [2] = experiment: Intranasal Administration-Simulation in vitro (plaque inhibition, compound on petri dish lid); type: cell-based; details: 1 μg in ethanol applied to petri dish lids, ethanol evaporated; cell sheet covered with agarose gel
# Description: Activity may be detected by the plaque inhibition (PI) test and measured by the plaque reduction (PR) test. Both assays involve the formation of a monolayer cell culture in a petri dish followed by infection with a virus suspension, and then overlaying the culture with nutrient agarose in the form of a gel. This gel ensures that there is no spread of virus throughout the culture and thus areas of localised cell destruction or plaques are formed. In the plaque inhibition test a filter paper disc which holds 0.01 ml when impregnated with a solution of compound is placed on top of the agarose gel. The compound may then diffuse throughout the gel so that its greatest concentration will be around the disc and its lowest concentration towards the periphery of the petri dish. The efficacy of the compound may be detected by observing the zone of inhibition of plaque formation. Petri dishes were prepared, as for the plaque inhibition test and the confluent sheet of cells was covered with a layer of agarose gel. The compound, 2-(3-pyridyl)chroman (1 μg) was dissolved in ethanol, and applied to the lids of the petri dishes. When the ethanol had evaporated, leaving the compound spread over the inside of the lids, these were replaced on the petri dishes.
EC50 (rhinovirus [1]),SMILES,inhibition of plaque formulation (rhinovirus [2])
1100 nM,"[O-][n+]1cccc(C2CCc3ccccc3O2)c1 (racemic) [2-(3-pyridyl)chroman N--oxide, 2-(3-pyridyl)chroman N-oxide]",
390 nM,c1cncc(C2CCc3ccccc3O2)c1 (stereo not shown) [2-(3-pyridyl)chroman],total inhibition
42 nM,Clc1ccc2c(c1)CCC(c1cccnc1)O2 (stereo not shown) [6-chloro-2-(3-pyridyl)chroman],
